For assay [1], the target named is T1, Dual specificity mitogen-activated protein kinase kinase 7 (Homo sapiens) (UniProt O14733).
T1 sequence (whole entry): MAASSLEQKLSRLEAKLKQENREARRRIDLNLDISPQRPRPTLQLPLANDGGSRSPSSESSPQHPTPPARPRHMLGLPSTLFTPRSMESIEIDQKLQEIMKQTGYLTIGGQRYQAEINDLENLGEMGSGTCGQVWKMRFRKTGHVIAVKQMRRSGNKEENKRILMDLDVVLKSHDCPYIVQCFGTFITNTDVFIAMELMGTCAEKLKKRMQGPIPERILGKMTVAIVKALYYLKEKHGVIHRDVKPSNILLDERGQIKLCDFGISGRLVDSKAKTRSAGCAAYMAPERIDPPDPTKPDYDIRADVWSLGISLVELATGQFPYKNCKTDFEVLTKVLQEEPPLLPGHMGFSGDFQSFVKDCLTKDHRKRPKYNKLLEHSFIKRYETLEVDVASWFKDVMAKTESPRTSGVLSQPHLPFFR
In words: Binding affinity to MKK7 (unknown origin) assessed as percent of control at 100 nM by Kinomescan method relative to control.

Assay [2] concerns the target Mitogen-activated protein kinase kinase kinase 20 (Homo sapiens) (UniProt Q9NYL2). The experiment in a line: Binding affinity to ZAK (unknown origin) assessed as percent of control at 100 nM by Kinomescan method relative to control.
Assay [3] addresses T2, Dual specificity mitogen-activated protein kinase kinase 6 (Homo sapiens, UniProt P52564).
T2 sequence (P52564 whole entry): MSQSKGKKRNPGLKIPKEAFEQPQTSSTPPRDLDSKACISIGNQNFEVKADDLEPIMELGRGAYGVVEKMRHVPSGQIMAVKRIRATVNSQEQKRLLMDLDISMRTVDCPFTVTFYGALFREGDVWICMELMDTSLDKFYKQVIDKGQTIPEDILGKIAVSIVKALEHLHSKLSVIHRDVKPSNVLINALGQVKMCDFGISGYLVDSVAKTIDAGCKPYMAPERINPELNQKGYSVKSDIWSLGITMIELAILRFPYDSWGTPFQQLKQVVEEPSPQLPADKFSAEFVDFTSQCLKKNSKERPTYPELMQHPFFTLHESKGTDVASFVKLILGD
In words: Inhibition of MKK6 (unknown origin).

19 molecules from ChEMBL document CHEMBL5113505 (Eur J Med Chem, 2022) can be followed below.

One may read the IC50 as the concentration that inhibits the measured activity by half. Lower therefore signals greater potency in that assay.

Mitogen-activated protein kinase kinase kinase 20 (Homo sapiens), sequence (Q9NYL2 2-800 limits assumed): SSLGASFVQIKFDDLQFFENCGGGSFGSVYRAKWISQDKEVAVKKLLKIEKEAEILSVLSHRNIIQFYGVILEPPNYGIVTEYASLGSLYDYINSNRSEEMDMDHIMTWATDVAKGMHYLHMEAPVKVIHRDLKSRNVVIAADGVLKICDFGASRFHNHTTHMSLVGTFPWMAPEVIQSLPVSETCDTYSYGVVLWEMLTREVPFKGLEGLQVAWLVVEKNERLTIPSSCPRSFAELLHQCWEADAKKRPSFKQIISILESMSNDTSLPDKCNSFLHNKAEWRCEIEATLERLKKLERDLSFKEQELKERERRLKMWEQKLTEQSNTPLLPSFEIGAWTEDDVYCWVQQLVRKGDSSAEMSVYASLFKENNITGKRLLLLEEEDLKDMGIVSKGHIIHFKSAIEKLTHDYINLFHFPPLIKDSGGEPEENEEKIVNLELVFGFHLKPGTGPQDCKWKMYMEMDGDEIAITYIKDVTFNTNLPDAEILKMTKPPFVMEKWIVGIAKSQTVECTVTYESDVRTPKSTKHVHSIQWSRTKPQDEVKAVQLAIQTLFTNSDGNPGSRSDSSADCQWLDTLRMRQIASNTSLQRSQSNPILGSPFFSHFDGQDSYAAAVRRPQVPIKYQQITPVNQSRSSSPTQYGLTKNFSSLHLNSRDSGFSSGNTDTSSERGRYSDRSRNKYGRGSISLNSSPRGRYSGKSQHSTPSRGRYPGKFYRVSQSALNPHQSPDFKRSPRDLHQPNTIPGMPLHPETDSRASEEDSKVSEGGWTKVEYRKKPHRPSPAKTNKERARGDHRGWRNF

Take `CCCS(=O)(=O)Nc1ccc(F)c(C(=O)c2ccc3[nH]c4ncc(-c5ccc(S(N)(=O)=O)cc5)cc4c3c2)c1F`: the Activity in assay [1] and in assay [2] was 100% each time.

As to `CCCS(=O)(=O)Nc1ccc(F)c(C(=O)c2ccc3[nH]c4ncc(-c5ccccc5F)cc4c3c2)c1F`, the Activity in assay [1] and in assay [2] was 100% throughout. Take `CCCS(=O)(=O)Nc1ccc(F)c(C(=O)c2ccc3[nH]c4ncc(-c5ccncc5)cc4c3c2)c1F`: the Activity in assay [1] was determined as 91%; in assay [2], 94%. On to `CCCS(=O)(=O)Nc1ccc(F)c(C(=O)c2ccc3[nH]c4ncc(-c5ccc(-c6nnn[nH]6)cc5)cc4c3c2)c1F`, for which the Activity in assay [1] and in assay [2] was 100% each time. Turning to `CCCS(=O)(=O)Nc1ccc(F)c(C(=O)c2c[nH]c3ncc(-c4ccc(S(N)(=O)=O)cc4)cc23)c1F`, the Activity in assay [1] amounted to 78%; in assay [2] it was 94%. Taken in the same sequence, the figures for `CCCS(=O)(=O)Nc1ccc(F)c(C(=O)c2n[nH]c3ncc(-c4ccc(C(=O)NCC(O)CO)cc4)cc23)c1F` (stereo unspecified) were 97% and 2.8%.

On to `CCCS(=O)(=O)Nc1ccc(F)c(C(=O)c2ccc3[nH]c4ncc(-c5ccc(S(=O)(=O)NCC(O)CO)cc5)cc4c3c2)c1F` (stereo unspecified), for which the Activity in assay [1] is 97%; in assay [2], 100%. Taken in the same sequence, the figures for `CCCS(=O)(=O)Nc1ccc(F)c(C(=O)c2ccc3[nH]c4ncc(-c5ccc(C(=O)O)cc5)cc4c3c2)c1F` were 100% and 98%. Regarding `CCCS(=O)(=O)Nc1ccc(F)c(C(=O)c2n[nH]c3ncc(-c4ccc(S(=O)(=O)NCC(O)CO)cc4)cc23)c1F` (stereo unspecified), the Activity in assay [1] amounted to 100%; in assay [2], 29%. Take `CCCS(=O)(=O)Nc1ccc(F)c(C(=O)c2ccc3[nH]c4ncc(-c5ccc(C(=O)NCC(O)CO)cc5)cc4c3c2)c1F` (stereo unspecified): the results for the Activity in assay [1] and in assay [2] were 100% and 88%, respectively.

Regarding `CCCS(=O)(=O)Nc1ccc(F)c(C(=O)c2ccc3[nH]c4ncc(-c5ccc(C(N)=O)cc5)cc4c3c2)c1F`, the Activity in assay [1] was found to be 98%; in assay [2], 89%.

In the case of `NC(=O)c1ccc2[nH]c3ncnc(-c4ccccc4)c3c2c1`, the IC50 in assay [3] was less than 1000 nM.

For `CCCS(=O)(=O)Nc1ccc(F)c(C(=O)c2ccc3[nH]c4ncc(-c5ccc(OCC(O)CO)cc5)cc4c3c2)c1F` (stereo unspecified), the Activity in assay [1] was determined as 96%; in assay [2], 100%. Consider `CCCS(=O)(=O)Nc1ccc(F)c(C(=O)c2n[nH]c3ncc(-c4ccc(O)cc4)cc23)c1F`, for which the Activity in assay [2] worked out at 0%.

With `CCCS(=O)(=O)Nc1ccc(F)c(C(=O)c2ccc3[nH]c4ncc(-c5ccc(Cl)cc5)cc4c3c2)c1F`, the Activity in assay [1] and in assay [2] was 100% in each case.

Turning to `CCCS(=O)(=O)Nc1ccc(F)c(C(=O)c2ccc3[nH]c4ncc(-c5ccc(O)cc5)cc4c3c2)c1F`, the Activity in assay [1] and in assay [2] was 100% in each case. `CCCS(=O)(=O)Nc1ccc(F)c(C(=O)c2c[nH]c3ncc(-c4ccc(O)cc4)cc23)c1F`: the Activity worked out at 100% in assay [1] and 0.15% in assay [2]. As for `CCCS(=O)(=O)Nc1ccc(F)c(C(=O)c2c[nH]c3ncc(-c4cccnc4)cc23)c1F`, the Activity came out at 100% in assay [1] and 0.6% in assay [2].

Consider `CCCS(=O)(=O)Nc1ccc(F)c(C(=O)c2c[nH]c3ncc(-c4ccc(OCC(O)CO)cc4)cc23)c1F` (stereo unspecified), for which the Activity in assay [1] worked out at 99%; in assay [2], 0.35%.
